Assay results published in US12098154B2, “Inhibitors of cyclin-dependent kinases” (Dana-Farber Cancer Institute, Inc., priority 2015, dated 2024).
pIC50: −log10 of the molar value. Read-outs that look alike come from different tables or passages of the source.

Columns and labels:
CDK7 = target: T1, CDK7 (Homo sapiens, UniProt P50613); assay: Pulldown assay with biotin-THZ1, blot for Cyclin H; assay type: cell-based; details: Jurkat cells treated with 1 uM or 200 nM
T1 construct: endogenous in cells; host or cells: Jurkat
T1 sequence (P50613 2-346 limits assumed): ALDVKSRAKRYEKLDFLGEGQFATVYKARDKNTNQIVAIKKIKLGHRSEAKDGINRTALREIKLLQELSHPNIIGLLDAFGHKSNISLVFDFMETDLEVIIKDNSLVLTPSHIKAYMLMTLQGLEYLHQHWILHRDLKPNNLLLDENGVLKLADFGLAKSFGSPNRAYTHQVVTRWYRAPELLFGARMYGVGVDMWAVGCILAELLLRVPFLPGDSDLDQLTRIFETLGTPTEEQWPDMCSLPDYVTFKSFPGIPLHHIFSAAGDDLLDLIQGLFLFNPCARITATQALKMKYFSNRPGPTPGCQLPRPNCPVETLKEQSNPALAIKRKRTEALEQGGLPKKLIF
T1 sequence (P51946 whole entry partner): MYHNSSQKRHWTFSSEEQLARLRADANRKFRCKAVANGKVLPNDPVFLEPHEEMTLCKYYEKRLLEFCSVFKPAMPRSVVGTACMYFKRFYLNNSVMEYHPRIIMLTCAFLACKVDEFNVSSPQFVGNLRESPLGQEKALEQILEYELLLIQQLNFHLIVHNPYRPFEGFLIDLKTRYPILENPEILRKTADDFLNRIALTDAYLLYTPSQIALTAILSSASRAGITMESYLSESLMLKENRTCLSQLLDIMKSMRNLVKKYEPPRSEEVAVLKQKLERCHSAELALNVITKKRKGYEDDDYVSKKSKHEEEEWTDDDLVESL
T1 sequence (P51948 whole entry partner): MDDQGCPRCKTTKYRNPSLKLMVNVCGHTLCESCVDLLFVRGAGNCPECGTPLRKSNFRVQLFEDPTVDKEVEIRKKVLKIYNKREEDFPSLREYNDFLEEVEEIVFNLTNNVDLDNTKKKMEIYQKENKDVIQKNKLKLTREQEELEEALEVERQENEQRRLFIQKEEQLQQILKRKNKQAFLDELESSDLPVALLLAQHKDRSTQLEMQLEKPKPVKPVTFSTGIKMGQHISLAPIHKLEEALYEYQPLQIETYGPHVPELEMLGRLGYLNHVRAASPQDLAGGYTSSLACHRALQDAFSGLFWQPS
Description: Compounds E9 and E17 were able to block pulldown of cyclin K at 1 μM and 200 nM. Specifically. […] Decreased pulldown of cyclin K with biotin-THZ1 indicated a loss of CDK12 binding.
(§1) 6 hours after treatment, cells were washed and harvested by resuspending in lysis buffer (50 mM Hepes pH 7.4, 150 mM NaCl, 1% NP-40, 5 mM EDTA, protease and phosphatase inhibitors) and lysing on ice 30 minutes. Lysates were cleared by centrifugation at 15,000 rpm 30 minutes. Biotin-labeled THZ1 was added to 1 uM to lysates and rotated at 4° C. overnight. Streptavidin-agarose beads were washed and 30 uL slurry was added to each lysate and rotated for 1 hour at 4° C. Beads were washed 5 times with lysis buffer and 50 uL 2×LDS buffer was added to each sample. Samples were boiled and equal volume of protein was loaded onto gel. Gel was transferred to nitrocellulose and blotted for Cyclin K and Cyclin H.

CDK9/CycT = CDK9/CycT (Homo sapiens, UniProt P50750); assay: CDK9/CycT inhibition (Tables A1, A2); assay type: biochemical
Chain of CDK9/CycT (P50750 whole entry): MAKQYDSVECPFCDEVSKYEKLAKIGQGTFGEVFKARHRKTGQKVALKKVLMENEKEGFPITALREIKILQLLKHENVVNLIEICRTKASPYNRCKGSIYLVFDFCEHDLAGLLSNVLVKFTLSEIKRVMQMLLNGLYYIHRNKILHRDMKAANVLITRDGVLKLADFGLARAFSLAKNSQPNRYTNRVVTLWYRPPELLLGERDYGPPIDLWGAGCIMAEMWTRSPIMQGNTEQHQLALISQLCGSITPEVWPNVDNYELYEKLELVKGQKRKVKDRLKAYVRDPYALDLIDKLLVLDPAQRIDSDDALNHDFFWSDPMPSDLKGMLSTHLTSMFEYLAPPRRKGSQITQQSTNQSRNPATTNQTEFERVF
Chain of CDK9/CycT (O60563 whole entry partner): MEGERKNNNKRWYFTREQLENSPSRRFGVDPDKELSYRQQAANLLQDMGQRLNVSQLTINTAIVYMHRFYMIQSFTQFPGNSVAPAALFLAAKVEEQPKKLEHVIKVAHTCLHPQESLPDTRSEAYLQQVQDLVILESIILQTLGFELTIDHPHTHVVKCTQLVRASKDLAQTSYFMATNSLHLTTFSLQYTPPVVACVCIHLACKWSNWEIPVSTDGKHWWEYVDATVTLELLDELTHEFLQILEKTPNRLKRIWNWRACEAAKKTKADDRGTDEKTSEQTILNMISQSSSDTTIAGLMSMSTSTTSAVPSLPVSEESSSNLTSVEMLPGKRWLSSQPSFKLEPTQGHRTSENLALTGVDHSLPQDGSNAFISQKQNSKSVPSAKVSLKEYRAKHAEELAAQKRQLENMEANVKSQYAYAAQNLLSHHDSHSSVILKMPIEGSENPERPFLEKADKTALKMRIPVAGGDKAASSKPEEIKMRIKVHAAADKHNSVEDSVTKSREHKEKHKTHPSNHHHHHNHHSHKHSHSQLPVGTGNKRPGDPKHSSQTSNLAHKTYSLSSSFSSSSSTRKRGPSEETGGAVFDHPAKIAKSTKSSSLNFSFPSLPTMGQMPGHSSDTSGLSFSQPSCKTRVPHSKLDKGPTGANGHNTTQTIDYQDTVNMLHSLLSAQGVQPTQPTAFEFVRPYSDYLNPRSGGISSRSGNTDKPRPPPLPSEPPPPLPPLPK

Jurkat cells [1] = assay: Growth assay with and without washout; assay type: cell-based; details: 1 uM, 4 hours treatment, assayed 68 hours after washout
Description: Cells were treated with each compound for 4 hours and either no washout (no washout) or had compound removed by washing cells with media (washout). Sixty-eight (68) hours after washout, the cells were assayed for antiproliferative effects. Error bars indicate +/−SD.
4 hours after treatment, cells were either not treated or washed three times with RPMI media to remove all compound. Cells were replated and allowed to grow for 68 hours. Cells were assayed using celltiter glo (Promega) to determine cell viability by measuring the amount of ATP present, which is an indicator of cell metabolic activity. Results are graphed as luminescent values (FIG. 1).

CDK7/CycH = CDK7/CycH (Homo sapiens, UniProt P50613); assay: CDK7/CycH inhibition (Tables A1, A2); assay type: biochemical
Chain of CDK7/CycH (P50613 whole entry): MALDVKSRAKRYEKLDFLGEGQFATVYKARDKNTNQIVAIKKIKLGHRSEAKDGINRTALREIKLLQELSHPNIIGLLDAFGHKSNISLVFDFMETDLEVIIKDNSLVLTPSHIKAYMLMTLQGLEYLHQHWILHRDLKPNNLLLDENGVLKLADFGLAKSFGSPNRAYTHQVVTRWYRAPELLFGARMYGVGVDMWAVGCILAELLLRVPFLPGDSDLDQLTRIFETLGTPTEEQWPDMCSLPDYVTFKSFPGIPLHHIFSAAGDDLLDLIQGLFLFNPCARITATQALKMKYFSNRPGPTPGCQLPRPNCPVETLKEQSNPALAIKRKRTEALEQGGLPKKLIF
Chain of CDK7/CycH (P51946 whole entry partner): as the sequence (P51946 whole entry partner) above

HAP1 cells = assay: HAP1 cell proliferation assay, wild type vs CDK12 C1039S/CDK13 C1017S; assay type: cell-based; details: 72 hrs proliferation
Description: Double mutant cells are 4-fold less sensitive to E17 compared to wild type cells indicating rescue of CDK12/13 inhibition-induced proliferation defects. HAP1 cells were seeded at a density of 12,000 cells/well in 96-well plates. Twenty-four hours later, cells were treated with the indicated compounds in a 10-pt dose escalation format from 1 nM to 10 μM or DMSO control for 72 hours. After 72 hours, the cells were assayed using CellTiter-Glo Luminescent Cell Viability Assay (Promega) to determine cell viability by measuring the amount of ATP present in each sample cell population, which is an indicator of cell metabolic activity. Results were graphed as fraction of the DMSO control at 72 hours. All data points were performed in biological triplicate. Error bars are +/−SD.
Genome Editing: The CRISPR/Cas9 system was used to mutate the endogenous CDK12 and CDK13 loci to encode for CDK12 C1039S and CDK13 C1017S, both of which are putative CDK12/13 inhibitor-refractory mutants. Target-specific oligonucleotides were cloned into pX330, which carries a codon-optimized version of Cas9 and was further modified to express GFP for identifying transfectants. […]

CDK2/CycA = CDK2/CycA (Homo sapiens, UniProt P24941); assay: CDK2/CycA inhibition (Tables A1, A2); assay type: biochemical
CDK12 = target: T2, CDK12 (Homo sapiens, UniProt Q9NYV4); assay: Pulldown assay with biotin-THZ1, blot for Cyclin K; assay type: cell-based; details: Jurkat cells treated with 1 uM or 200 nM
T2 construct: endogenous in cells; host or cells: Jurkat
T2 sequence (Q9NYV4 whole entry): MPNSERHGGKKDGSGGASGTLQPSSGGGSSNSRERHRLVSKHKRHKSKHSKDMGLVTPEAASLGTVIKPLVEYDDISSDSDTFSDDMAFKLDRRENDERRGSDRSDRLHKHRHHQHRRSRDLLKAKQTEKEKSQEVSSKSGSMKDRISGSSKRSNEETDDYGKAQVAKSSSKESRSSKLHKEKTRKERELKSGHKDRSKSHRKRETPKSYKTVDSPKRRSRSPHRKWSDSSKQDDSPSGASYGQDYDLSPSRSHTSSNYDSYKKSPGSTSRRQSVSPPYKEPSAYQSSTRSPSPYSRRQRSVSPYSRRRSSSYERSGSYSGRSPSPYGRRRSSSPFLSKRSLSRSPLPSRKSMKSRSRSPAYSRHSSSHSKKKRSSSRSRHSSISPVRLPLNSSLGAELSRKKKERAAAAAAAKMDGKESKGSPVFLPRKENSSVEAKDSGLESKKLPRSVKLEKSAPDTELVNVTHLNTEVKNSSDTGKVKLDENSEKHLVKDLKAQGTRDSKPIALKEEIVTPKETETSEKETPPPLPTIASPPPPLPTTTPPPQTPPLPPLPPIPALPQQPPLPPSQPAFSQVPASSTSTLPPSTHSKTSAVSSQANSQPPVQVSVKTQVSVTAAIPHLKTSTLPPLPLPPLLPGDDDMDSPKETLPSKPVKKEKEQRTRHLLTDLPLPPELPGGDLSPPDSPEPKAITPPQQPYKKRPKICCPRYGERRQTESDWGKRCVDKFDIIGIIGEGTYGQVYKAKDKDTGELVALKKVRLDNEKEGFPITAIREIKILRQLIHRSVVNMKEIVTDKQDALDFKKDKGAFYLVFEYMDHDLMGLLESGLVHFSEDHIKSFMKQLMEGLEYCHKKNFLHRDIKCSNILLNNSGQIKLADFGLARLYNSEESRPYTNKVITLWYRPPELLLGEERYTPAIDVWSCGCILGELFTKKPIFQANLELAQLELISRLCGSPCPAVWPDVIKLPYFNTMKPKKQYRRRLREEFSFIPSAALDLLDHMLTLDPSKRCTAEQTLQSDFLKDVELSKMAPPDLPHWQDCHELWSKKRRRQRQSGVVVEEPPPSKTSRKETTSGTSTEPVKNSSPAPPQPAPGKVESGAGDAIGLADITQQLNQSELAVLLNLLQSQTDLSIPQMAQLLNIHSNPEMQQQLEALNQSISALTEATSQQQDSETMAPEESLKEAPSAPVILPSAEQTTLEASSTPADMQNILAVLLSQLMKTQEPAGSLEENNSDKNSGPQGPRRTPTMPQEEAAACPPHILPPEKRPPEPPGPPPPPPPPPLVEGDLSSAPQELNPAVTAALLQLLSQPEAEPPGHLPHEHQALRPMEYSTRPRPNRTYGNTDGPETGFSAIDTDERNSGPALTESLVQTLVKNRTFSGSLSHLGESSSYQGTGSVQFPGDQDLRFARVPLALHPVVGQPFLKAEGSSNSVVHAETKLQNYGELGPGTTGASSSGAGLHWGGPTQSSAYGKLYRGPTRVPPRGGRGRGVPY
T2 sequence (O75909 whole entry partner): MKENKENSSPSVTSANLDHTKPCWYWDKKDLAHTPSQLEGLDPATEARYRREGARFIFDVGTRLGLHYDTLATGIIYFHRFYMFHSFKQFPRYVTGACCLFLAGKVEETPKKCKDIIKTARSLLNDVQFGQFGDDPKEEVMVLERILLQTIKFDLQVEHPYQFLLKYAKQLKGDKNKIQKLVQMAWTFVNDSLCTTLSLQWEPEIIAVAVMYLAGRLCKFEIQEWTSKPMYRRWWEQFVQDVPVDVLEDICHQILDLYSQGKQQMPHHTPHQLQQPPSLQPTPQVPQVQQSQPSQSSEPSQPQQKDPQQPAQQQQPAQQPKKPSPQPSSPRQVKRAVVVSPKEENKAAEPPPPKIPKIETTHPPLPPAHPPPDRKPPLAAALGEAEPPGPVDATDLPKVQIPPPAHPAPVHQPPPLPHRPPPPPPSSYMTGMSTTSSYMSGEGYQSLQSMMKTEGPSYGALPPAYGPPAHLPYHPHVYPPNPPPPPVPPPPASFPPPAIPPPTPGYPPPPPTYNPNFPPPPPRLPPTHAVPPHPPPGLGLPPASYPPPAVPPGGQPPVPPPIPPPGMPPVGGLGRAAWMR
Description: Specifically. […] Decreased pulldown of cyclin K with biotin-THZ1 indicated a loss of CDK12 binding.
as §1

Jurkat cells [2] = assay: Jurkat proliferation assay (CellTiter-Glo); assay type: cell-based; details: for pIC50: Homo sapiens, Jurkat
Description: (§2) Jurkat cells were seeded at a density of 25,000 cells/well in 96-well plates. Cells were then treated with the indicated compounds in a 10-pt dose escalation format from 1 nM to 10 μM or DMSO control for 72 hours. After 72 hours, the cells were assayed using CellTiter-Glo Luminescent Cell Viability Assay (Promega) to determine cell viability by measuring the amount of ATP present in each sample cell population, which is an indicator of cell metabolic activity. […] All data points were performed in biological triplicate. Error bars are +/−SD.
as §2, with “hrs.” for “hours.”, “hrs,” for “hours, the”

[3] = system: Pol II Ser2 phosphorylation and MCL1 levels; assay: Washout expression assay (western blot); assay type: cell-based; details: Jurkat cells, 1 uM, 4 hours, 6 hours
Description: 4 hours after treatment, cells were either not treated or washed three times with RPMI media to remove all compound. Cells were replated and allowed to grow for 6 hours. Cells were harvested, washed 3 times with PBS and resuspended in RIPA buffer (25 mM Tris-HCl (pH 7.6), 150 mM NaCl, 1% NP-40, 1% sodium deoxycholate, 0.1% SDS). Equal amount of protein was loaded onto gel and blotted for Pol II Ser2 (Millipore 04-1571), total pol II (Santa Cruz 17798), Tubulin (Cell Signaling 11H10) or MCL1 (Cell Signaling 4572S)

C=CC(=O)Nc1cccc(Nc2nc(N[C@H]3CC[C@H](N(C)C)CC3)nc3c(CC)cnn23)c1 [SB1-E-17, N-(3-(2-((1r,4r)-4-(Dimethylamino)cyclohexylamino)-8-ethylpyrazolo[1,5-a][1,3,5]triazin-4-ylamino)phenyl)acrylamide]
Pulldown of Cyclin H by biotin-THZ1 (CDK7 binding) (CDK7): not able to bind to CDK7
pIC50 (CDK9/CycT): 6.77
Inhibition of Jurkat cell viability with and without washout (Jurkat cells [1]): irreversibly inhibit Jurkat cell viability
pIC50 (CDK7/CycH): 5.99
Loss of sensitivity of CDK12 C1039S/CDK13 C1017S HAP1 cells compared to wild type HAP1 cells (HAP1 cells): 4 fold
pIC50 (CDK2/CycA): 6.61
Pulldown of Cyclin K by biotin-THZ1 (CDK12 binding) (CDK12): blocks the pulldown of Cyclin K
Mode of inhibition of Jurkat T-ALL cell proliferation (Jurkat cells [2]): irreversiably inhibit
pIC50 (Jurkat cells [2]; 72 h, CellTiter-Glo, read-out: IC50 on Jurkat T-ALL cell proliferation): > 7.00
pIC50 (Jurkat cells [2]; read-out: Jurkat IC50): 7.22
Effect on Polymerase II Serine 2 phosphorylation and MCL1 levels with and without washout [3]: irreversible effect
